Assay results published in US7214659B2, “Reduction of the electrocardiographic QT interval” (Creative Peptides Sweden AB, priority 2000, dated 2007).

Columns and labels:
[1] = test system: IDDM patients with autonomic neuropathy; experiment: QTc interval during 3 h i.v. C-peptide infusion, randomized double-blind study (Example 1); format: in vivo, human; settings: during three hours of C-peptide i.v., 6 pico mole per kg per minute; basal QTc 0.429±0.004s; decreased significantly, p<0.05
Description: The QTc interval will vary from patient to patient but can generally be considered prolonged when it exceeds 420 ms in men and 430 ms in women. QTc is the corrected (for heart rate influence) QT interval. It is calculated according to Bazett's formula (QTc=QT/√{square root over (R)}R). QT and RR are conveniently measured using a ruler on an ECG tracing; the QT interval is measured from the beginning of the QRS complex to the end of the crossing of the isoelectric line of the T wave, see the stylised representation in FIG. 1. Any reduction in the interval can be beneficial to the patient, preferably the interval will be reduced by at least 3 ms, more preferably treatment will reduce the QTc interval by at least 5 ms, particularly preferably at least 8 ms even at least 10 ms. […]
Before and during the three hour session a complete 12 lead electrocardiogram was recorded to evaluate heart rate variability during deep breathing. […] The […] (one patient could not take part in a second session and one patient's ECG tracing was not possible to evaluate) were analyzed blindly by two persons. The RR and QT interval were measured with a ruler. […] Five intervals from the precordial leads and five intervals from the extremity leads were measured on each occasion and a mean was calculated. […]

IDDM patients = experiment: QTc interval after 3 months of s.c. C-peptide, randomised cross over study (Example 2); format: in vivo, human; settings: 6 patients with prolonged QTc interval at the outset (>420 ms), 600 nmol per 24 h s.c. in 3 doses
Description: In a further study (different results from which were published in Diabetic Medicine, Vol. 17 (2000) p. 181–189, Johannson, Bo-Lennart et al.) 21 IDDM patients were monitored for 6 months according to a randomised cross over regimen wherein C-peptide was administered for 3 months and a placebo.
Further details of the study can be found in the above referenced paper in Diabetic Medicine but in summary, biosynthetic human C-peptide (Eli Lilly Co.) or a placebo comprising just the C-peptide solvent was injected sub-cutaneously 3 times per day. The total 24 h dose of C-peptide was 600 nmol (225 nmol 30 mins before breakfast, 150 nmol before dinner and 225 nmol at bedtime).
ECGs were recorded at the start of the programme and after 3 and then 6 months of the study. These recordings were then used to measure the QTc interval as described in Example 1.

patients with IDDM = experiment: QTc interval during 3 h C-peptide infusion, randomised double blind study (Example 3); format: in vivo, human; settings: infused for 3 hours; NaCl placebo; FIG. 4
Description: Twelve patients were investigated twice in a randomised double blind study where C-peptide or a NaCl placebo were infused for 3 hours. The same procedure as described in Example 1 was followed.

[2] = Plasma C-peptide and blood glucose levels during 3 h i.v. C-peptide infusion (Example 1); format: in vivo; settings: both sexes, human, iv, during the C-peptide infusion, 6 pico mole per kg per minute i.v. for 180 minutes, 0.11±0.02 nmol/l before the study
Text: In this study 12 IDDM patients (six male and six female) with autonomic neuropathy participated in two different sessions in a randomized, double-blind study (one patient attended one time only). Their mean age was 40 and mean duration of diabetes was 21 years. In eight patients the fasting plasma C-peptide levels were below the detection limit (<0.10 nmol/l), the remaining four varied between 0.13 and 0.25 nmol/l. Eleven patients had decreased heart rate variability during deep breathing as evidence of autonomic neuropathy. On each occasion they received insulin i.v. for 9–12 hours before the study and blood glucose levels were tested every 1–2 hours during the night. The insulin infusion was adjusted to achieve euglycaemia (5–6 mmol/l). The patients were then given either saline or C-peptide i.v. for 180 minutes. 6 pico mole per kg per minute was administered.

CC(C)C[C@H](NC(=O)[C@H](C)NC(=O)[C@H](CC(C)C)NC(=O)[C@@H]1CCCN1C(=O)[C@H](CCC(N)=O)NC(=O)[C@H](CC(C)C)NC(=O)[C@H](CO)NC(=O)CNC(=O)[C@H](C)NC(=O)CNC(=O)[C@@H]1CCCN1C(=O)CNC(=O)CNC(=O)CNC(=O)[C@H](CC(C)C)NC(=O)[C@H](CCC(=O)O)NC(=O)[C@@H](NC(=O)[C@H](CCC(N)=O)NC(=O)CNC(=O)[C@@H](NC(=O)[C@H](CCC(N)=O)NC(=O)[C@H](CC(C)C)NC(=O)[C@H](CC(=O)O)NC(=O)[C@H](CCC(=O)O)NC(=O)[C@H](C)NC(=O)[C@@H](N)CCC(=O)O)C(C)C)C(C)C)C(=O)N[C@@H](CCC(=O)O)C(=O)NCC(=O)N[C@@H](CO)C(=O)N[C@@H](CC(C)C)C(=O)N[C@@H](CCC(N)=O)C(=O)O [C-peptide]
mean QTc interval [1]: 0.422 ± 0.006 s
QTc interval, C-peptide phase compared to placebo phase (IDDM patients): clear shortening of the QTc interval
QTc interval during C-peptide treatment compared to placebo (patients with IDDM): decrease in QTc interval
level at time molar [2]: 1.73 ± 0.04 nM
